The text below walks through data of ChEMBL document CHEMBL2407022, “Advancement of Imidazo[1,2-a]pyridines with Improved Pharmacokinetics and Nanomolar Activity Against Mycobacterium tuberculosis” (ACS Med Chem Lett, 2013).

SMILES strings stand for the structures. In brackets after ≈: the same amount, converted by molar mass. Activity calls are given as the source filed them. The rule behind the calls is not given here. Some results are limits rather than exact numbers.

Broadly, the MIC99 is an inhibitory concentration at the 99% level, which refers to growth in some studies and to a panel of isolates in others. Lower therefore signals higher susceptibility. For orientation: Tmax means the time at which the peak concentration occurs. As a reminder, the half-life is the time in which the quantity being followed falls by half. A low value points to rapid decline. The term clearance denotes the rate of elimination divided by the concentration. A low value points to inefficient removal. The term inhibition denotes the change of the read-out against control, counted positive when it falls. A lower inhibition goes with a response near the control. Usually MIC90 stands for an inhibitory concentration at the 90% level, which refers to growth in some studies and to a panel of isolates in others. Low values mean higher susceptibility, high ones lower susceptibility.

The subject of data set [1] is Mycobacterium tuberculosis. The data set can be described thus: Antimycobacterial activity against isoniazid, rifampin, ethambutol, pyrazinamide, streptomycin, kanamycin and p-aminosalicylic acid-resistant Mycobacterium tuberculosis after 14 days. The format is functional. The note with it: 336 h.
For data set [2], the system named is Mycobacterium tuberculosis. The data set can be described thus: Antimycobacterial activity against isoniazid, rifampin, ethambutol, kanamycin and p-aminosalicylic acid-resistant Mycobacterium tuberculosis after 14 days. The format is functional. To be noted: 336 h.
The test system of data set [3] is Mycobacterium tuberculosis. Put plainly: Antimycobacterial activity against drug-sensitive Mycobacterium tuberculosis clinical isolate 1 after 14 days. The format is functional. To be noted: clinical isolate 1, 336 h.
In data set [4] the test system is Mycobacterium tuberculosis. Put plainly: Antimycobacterial activity against Mycobacterium tuberculosis H37Rv expressing pCHERRY3 after 4 days by plate format assay. The note with it: 96 h. The format is functional.
In data set [5] the test system is Mycobacterium tuberculosis. Put plainly: Antimycobacterial activity against drug-sensitive Mycobacterium tuberculosis clinical isolate 2 after 14 days. The format is functional. To be noted: clinical isolate 2, 336 h.
Data set [6] is described as follows: Drug metabolism in dog liver microsomes at 2 uM after 30 mins by LC-MS analysis. The note with it: read-out: Drug metabolism. The format is ADME, Canis lupus familiaris, Microsome.
A short description of data set [7]: Drug metabolism in rat liver microsomes at 2 uM after 30 mins by LC-MS analysis. The format is ADME, Microsome. The note with it: read-out: Drug metabolism. For orientation: Liver microsomes are a subcellular fraction often used to study metabolism.
Data set [8] in a line: Drug metabolism in human liver microsomes at 2 uM after 30 mins by LC-MS analysis. The format is ADME, Microsome. The note with it: read-out: Drug metabolism.
Data set [9] in a line: Tmax in Balb/c mouse at 3 mg/kg, po. The format is ADME, organism-based. On the set-up: dose 3 mg/kg, route oral. The note with it: in vivo.
Data set [10] can be described thus: Drug metabolism in mouse liver microsomes assessed as monohydroxylations on imidazopyridine at 2 uM after 30 mins by LC/MS/MS analysis. The note with it: 0.5 h. The format is ADME, Microsome.
A short description of data set [11]: Drug metabolism in human liver microsomes assessed as monohydroxylations on imidazopyridine at 2 uM after 30 mins by LC/MS/MS analysis. To be noted: 0.5 h. The format is ADME, Microsome.
Data set [12] is described as follows: Drug metabolism in mouse liver microsomes at 2 uM after 30 mins by LC-MS analysis. The format is ADME, Microsome. The note with it: read-out: Drug metabolism.
A short description of data set [13]: Half life in Balb/c mouse at 100 mg/kg, po. The format is ADME, organism-based. Details: dose 100 mg/kg, route oral. To be noted: in vivo.
Data set [14] in a line: Tmax in Balb/c mouse at 100 mg/kg, po. The format is ADME, organism-based. On the set-up: dose 100 mg/kg, route oral. To be noted: in vivo.
A short description of data set [15]: Clearance in Balb/c mouse at 1 mg/kg, iv. The format is ADME, organism-based. On the set-up: dose 1 mg/kg, route intravenous. To be noted: in vivo.
The target in data set [16] is Cytochrome P450 2C9 (Homo sapiens, UniProt P11712). Put plainly: Time dependent inhibition of CYP3A4 in human liver microsomes using midazolam as substrate at 10 uM after 10 mins. The format is ADME, Microsome.
Chain of Cytochrome P450 2C9 (P11712 whole entry): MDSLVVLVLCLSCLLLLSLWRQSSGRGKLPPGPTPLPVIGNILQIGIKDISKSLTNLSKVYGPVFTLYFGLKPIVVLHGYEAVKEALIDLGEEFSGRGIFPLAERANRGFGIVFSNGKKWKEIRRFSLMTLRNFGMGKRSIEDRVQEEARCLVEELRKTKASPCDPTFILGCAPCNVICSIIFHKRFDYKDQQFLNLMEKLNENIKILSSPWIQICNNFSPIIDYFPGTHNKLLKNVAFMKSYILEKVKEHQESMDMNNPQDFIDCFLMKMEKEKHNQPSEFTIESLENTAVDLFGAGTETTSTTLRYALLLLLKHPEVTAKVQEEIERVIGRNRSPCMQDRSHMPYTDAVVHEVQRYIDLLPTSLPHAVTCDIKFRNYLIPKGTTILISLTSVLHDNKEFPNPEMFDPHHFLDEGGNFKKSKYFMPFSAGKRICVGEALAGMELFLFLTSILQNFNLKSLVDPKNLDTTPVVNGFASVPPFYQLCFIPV
The target of data set [17] is CYP3A4 (Homo sapiens, UniProt P11712). Put plainly: Inhibition of CYP3A4 in human liver microsomes using midazolam as substrate at 10 uM after 10 mins. The format is ADME, Microsome. To be noted: probe midazolam.
Chain of CYP3A4 (P11712 whole entry): as above
Data set [18] can be described thus: Half life in Balb/c mouse at 3 mg/kg, po. The format is ADME, organism-based. On the set-up: dose 3 mg/kg, route oral. To be noted: in vivo.
Data set [19] has as its target CYP2D6 (Homo sapiens, UniProt P10635). The data set can be described thus: Inhibition of CYP2D6 in human liver microsomes using bufuralol as substrate at 10 uM after 10 mins. The format is ADME, Microsome. To be noted: probe bufuralol.
Data set [20] deals with Mycobacterium tuberculosis. The data set can be described thus: Antimycobacterial activity against Mycobacterium tuberculosis H37Rv expressing pCHERRY3 after 4 days by plate format assay in presence of bovine serum albumin. The format is functional, organism-based.
Data set [21] in a line: Drug metabolism in rat liver microsomes assessed as monohydroxylations on imidazopyridine at 2 uM after 30 mins by LC/MS/MS analysis. The format is ADME, Microsome. The note with it: 0.5 h.
Data set [22] deals with CYP2C9 (Homo sapiens, UniProt P11712). The data set can be described thus: Inhibition of CYP2C9 in human liver microsomes using diclofenac as substrate at 10 uM after 10 mins. The format is ADME, Microsome. The note with it: probe diclofenac.
Chain of CYP2C9 (P11712 whole entry): as above
Data set [23] is described as follows: Tmax in Balb/c mouse at 10 mg/kg, po. The format is ADME, organism-based. On the set-up: dose 10 mg/kg, route oral. The note with it: in vivo.
Data set [24] can be described thus: Half life in Balb/c mouse at 10 mg/kg, po. The format is ADME, organism-based. To be noted: in vivo. On the set-up: dose 10 mg/kg, route oral.

Chain of CYP2D6 (P10635 whole entry): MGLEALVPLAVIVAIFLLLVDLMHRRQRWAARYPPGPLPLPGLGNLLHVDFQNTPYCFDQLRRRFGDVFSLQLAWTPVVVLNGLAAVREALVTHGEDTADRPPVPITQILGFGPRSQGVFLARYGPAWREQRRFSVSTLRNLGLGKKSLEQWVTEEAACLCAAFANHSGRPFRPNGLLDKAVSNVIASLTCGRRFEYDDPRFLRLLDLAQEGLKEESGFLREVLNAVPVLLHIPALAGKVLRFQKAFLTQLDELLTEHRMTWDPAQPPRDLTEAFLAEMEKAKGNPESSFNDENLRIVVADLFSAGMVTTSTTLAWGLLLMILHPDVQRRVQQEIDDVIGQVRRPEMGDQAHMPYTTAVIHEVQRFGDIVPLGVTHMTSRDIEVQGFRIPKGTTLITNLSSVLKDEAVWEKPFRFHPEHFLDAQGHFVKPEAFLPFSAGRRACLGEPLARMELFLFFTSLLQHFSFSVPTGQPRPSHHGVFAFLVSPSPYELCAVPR

On to `Cc1ccc2nc(C)c(C(=O)NCc3ccccc3)n2c1`, for which the MIC99 in [1] is under 0.04 µM; in [2], under 0.04 µM; in [3] it was 0.04 µM (≈ 0.0112 µg/mL); in [4] it was 0.006 µM (≈ 0.00168 µg/mL); in [5], under 0.04 µM.

For `CO[C@H]1/C=C/O[C@@]2(C)Oc3c(C)c(O)c4c(O)c(c(/C=N/N5CCN(C)CC5)c(O)c4c3C2=O)NC(=O)/C(C)=C\C=C\[C@H](C)[C@H](O)[C@@H](C)[C@@H](O)[C@@H](C)[C@H](OC(C)=O)[C@@H]1C` [RIFAMPIN], the MIC99 in data set [4] turned out to be 0.003 µM (≈ 0.00247 µg/mL). In other words, the single-digit nanomolar range.

Molecule `Cc1ccc2nc(C)c(C(=O)NCc3ccc(S(C)(=O)=O)cc3)n2c1` showed an MIC99 in data set [4] of 0.4 µM (≈ 0.143 µg/mL).

As to `COc1cccc(NC(=O)c2c(C)nc3cc(C)ccn23)c1`, the MIC99 in data set [4] is over 20 µM.

Consider `Cc1ccn2c(C(=O)NCc3ncc(C(F)(F)F)cc3Cl)c(C)nc2c1`, for which the metabolised at 0.5 h, 2 µM in [6] worked out at 41.2%; in data set [7], 19.3%; in data set [8], 0%; in data set [12], 79.9%. Besides, the Tmax in [9] turned out to be 15 min; in [14], 2 h. Besides, the Drug metabolism entry in [10], in data set [11] and in data set [21] was “Active” each time. Further, the half-life in [13] was 116 min; in data set [18], 300 min. The molecule also yielded a clearance in data set [15] of 43.1 mL/min/kg. Besides, the “inhibition (INH)” value in data set [16] is reported as “Active”. Moreover, the MIC99 in data set [1] turned out to be 6.5 µM (≈ 2.49 µg/mL); in data set [2], 0.4 µM (≈ 0.153 µg/mL); in [4] it was 0.7 µM (≈ 0.268 µg/mL). The inhibition at 10 min, 10 µM in data set [17] worked out at 0%; in data set [19] it was 2.8%; in [22] it was 11.5%. In data set [20], the result was Active.

Consider `Cc1ccn2c(C(=O)NCc3ccccc3)c(C)nc2c1`, for which the metabolised at 0.5 h, 2 µM in data set [7] turned out to be 71%. Also, the result in data set [20] was Active. Also, the MIC99 in data set [4] worked out at 0.2 µM (≈ 0.0559 µg/mL).

`Cc1ccc2nc(C)c(C(=O)NCc3ccc(Oc4ccc(F)cc4)cc3)n2c1`: the MIC99 in [4] worked out at 0.005 µM (≈ 0.00195 µg/mL).

As for `O=[N+]([O-])c1cn2c(n1)OC[C@@H](OCc1ccc(OC(F)(F)F)cc1)C2` [PRETOMANID], the MIC99 in [1] is 0.5 µM (≈ 0.18 µg/mL); in data set [2] it was 0.5 µM (≈ 0.18 µg/mL); in data set [3], 0.5 µM (≈ 0.18 µg/mL); in data set [4], 0.6 µM (≈ 0.216 µg/mL); in data set [5] it was over 13.9 µM.

As to `Cc1ccn2c(C(=O)NCc3ccc(S(N)(=O)=O)cc3)c(C)nc2c1`, in data set [4], the MIC99 is over 20 µM.

For `Cc1ccn2c(C(=O)NCc3ccc(Oc4ccc(F)cc4)cc3)c(C)nc2c1`, the Tmax in data set [9] and in data set [23] was 30 min throughout. In addition, the Drug metabolism entry in data set [10], in [11] and in data set [21] was “Active” in each case. The “inhibition (INH)” value in [16] is reported as “Active”. This molecule also gave a half-life in data set [24] of 792 min. The molecule also yielded an MIC90 in data set [1] of 0.03 µM (≈ 0.0117 µg/mL). Moreover, the MIC99 is under 0.03 µM in data set [2], under 0.03 µM in [3], 0.004 µM (≈ 0.00156 µg/mL) in data set [4] and under 0.03 µM in data set [5]. Besides, the result in data set [20] was Active.

On to `Cc1nc2c(C)cccn2c1C(=O)NCc1ccc(Oc2ccc(F)cc2)cc1`, for which the MIC99 in [4] was determined as 0.1 µM (≈ 0.0389 µg/mL). This counts as sub-micromolar.

`COc1cccc(CNC(=O)c2c(C)nc3cc(Cl)ccn23)c1` displayed an MIC99 in data set [4] of 1.1 µM (≈ 0.363 µg/mL).

Turning to `Cc1ccc2nc(C(F)(F)F)c(C(=O)NCc3ccc(S(C)(=O)=O)cc3)n2c1`, the MIC99 in data set [4] was determined as 0.9 µM (≈ 0.37 µg/mL). This MIC99 and that of the molecule before are within 1.5-fold of each other.

The molecule `NNC(=O)c1ccncc1` [ISONIAZID] showed an MIC99 in [4] of 0.3 µM (≈ 0.0411 µg/mL).

Consider `C[C@H]1COC2(CCN(c3nc(=O)c4cc(C(F)(F)F)cc([N+](=O)[O-])c4s3)CC2)O1` [BTZ-043], for which the MIC99 in data set [4] is 0.003 µM (≈ 0.00129 µg/mL).
